Several values for one entry are separate records, joined by “and”; a condition that tells them apart may be missing. Equal entries are not always repeated. Structures can show the parent of a compound that is named as a salt. Where two headings read alike, the source gives them in different places.
What was measured:
[1] = molecular target: protein synthesis in rabbit reticulocyte lysate; assay: Inhibition of protein synthesis in rabbit reticulocyte lysates (luciferase mRNA translation); type: biochemical
Method: The TnT® Quick Coupled Transcription/Translation System from Promega (WI, USA; L1170) was used to evaluate inhibitory effects of ipecac alkaloids and cycloheximide on protein synthesis. Assay conditions were employed as recommended by the manufacturer. Briefly, reactions (20 μl) contained 80 % TNT Quick master mix, 20 µM methionine, 40 ng/µL luciferase RNA (Promega; L4561), and test chemicals. Samples were incubated at 30 °C for 90 min and diluted 10-fold with PBS. An aliquot (2 μl) was mixed with 20 μl of luciferase assay reagent (Promega; E1500) and luminescence was measured with a Turner Designs luminometer (model TD-20/20).

HCoV-OC43 = assay: Antiviral activity against HCoV-OC43 in Vero E6 cells (RT-qPCR of N-gene); type: cell-based
Method: Vero E6 cells (∼5 × 10^4 cells/cm^2 in 24-well plates) were infected with […] at MOI of 20 genomes per cell in 2 % FBS-EMEM at 33 °C, 5 % CO2 with gently mixing for 2 h. Infection medium was removed, cells were washed with fresh medium followed by the addition of compounds at indicated concentrations in 2 % FBS-EMEM. After 72 h, 100 µL of medium was collected and stored at −80 °C for viral RNA isolation and RT-qPCR analysis as detailed below. Drugs were added to the medium prior to and after viral absorption for comparison.
HCoV-OC43 RNA was isolated from 100 µL of medium using Quick-RNA Viral Kit-DX (Zymo Research, CA, USA; R1035). The relative amount of viral genomic RNA was determined with Luna Universal One-Step RT-qPCR Kit (New England Biolabs, MA, USA; E3005). […]
RT-qPCR cycles were set for 20 min at 55 °C, 1 min at 95 °C followed by 45 cycles of 95 °C for 10 s, 48 °C for 30 s and 60 °C for 1 min. The threshold cycle (Ct) for each sample was determined using the Opticon Monitor 3 Program (BioRad). Drug effects on viral propagation were evaluated assuming that a difference of one cycle corresponds to a two-fold difference in the number of copies of viral RNA. Ct values obtained for drug-free samples were considered as 100 % viral propagation.

BEC-hACE2 cells = assay: Sulforhodamine B (SRB) assay in non-infected BEC-hACE2 cells; type: cell-based, human; conditions: for GI50 / SRB, TGI: BEC-hACE2, 24 h; for GI50: read-out: SRB, GI50
Method: (§1) Detailed methods are provided in Supplementary Information.
This method has been used by the National Cancer Institute to evaluate drug candidates for their activities as growth inhibitors and toxins in human cancer cell lines. NCI’s protocols for SRB assay were strictly followed^81, 82. On the day of exposure (Day 0), several wells of untreated cells were fixed by addition of trichloroacetic acid (TCA, 10% V/V) and incubated for one hour at 4°C. The supernatant was discarded, wells washed five times with tap water and then air-dried. Samples were stored at room temperature until cells exposed to ipecac alkaloids or DMSO for 24 h were fixed in a similar manner. For color development, 500 µl of 0.4% SRB reagent prepared in 1% acetic acid was added to fixed cells and samples were incubated at room temperature for 15 min with gentle rocking. Unbound dye was removed by five washes with 1% acetic acid and plates were air-dried. Trizma base (10 mM) was used to dissolve the stain and absorbance was measured at 515 nm using a spectrophotometer. By comparing absorption values obtained at day 0 to the signal at day 1, with and without drugs, this protocol permits distinguishing growth inhibition from toxicity of the test compounds.

[2] = molecular target: T1, l-type calcium current ICaL (Homo sapiens, UniProt Q13936); assay: Patch clamp recording of ICaL in human iPSC-derived cardiomyocytes; type: cell-based
T1 construct: host or cells: human iPSC-derived ventricular cardiomyocytes
T1 sequence (Q13936 whole entry): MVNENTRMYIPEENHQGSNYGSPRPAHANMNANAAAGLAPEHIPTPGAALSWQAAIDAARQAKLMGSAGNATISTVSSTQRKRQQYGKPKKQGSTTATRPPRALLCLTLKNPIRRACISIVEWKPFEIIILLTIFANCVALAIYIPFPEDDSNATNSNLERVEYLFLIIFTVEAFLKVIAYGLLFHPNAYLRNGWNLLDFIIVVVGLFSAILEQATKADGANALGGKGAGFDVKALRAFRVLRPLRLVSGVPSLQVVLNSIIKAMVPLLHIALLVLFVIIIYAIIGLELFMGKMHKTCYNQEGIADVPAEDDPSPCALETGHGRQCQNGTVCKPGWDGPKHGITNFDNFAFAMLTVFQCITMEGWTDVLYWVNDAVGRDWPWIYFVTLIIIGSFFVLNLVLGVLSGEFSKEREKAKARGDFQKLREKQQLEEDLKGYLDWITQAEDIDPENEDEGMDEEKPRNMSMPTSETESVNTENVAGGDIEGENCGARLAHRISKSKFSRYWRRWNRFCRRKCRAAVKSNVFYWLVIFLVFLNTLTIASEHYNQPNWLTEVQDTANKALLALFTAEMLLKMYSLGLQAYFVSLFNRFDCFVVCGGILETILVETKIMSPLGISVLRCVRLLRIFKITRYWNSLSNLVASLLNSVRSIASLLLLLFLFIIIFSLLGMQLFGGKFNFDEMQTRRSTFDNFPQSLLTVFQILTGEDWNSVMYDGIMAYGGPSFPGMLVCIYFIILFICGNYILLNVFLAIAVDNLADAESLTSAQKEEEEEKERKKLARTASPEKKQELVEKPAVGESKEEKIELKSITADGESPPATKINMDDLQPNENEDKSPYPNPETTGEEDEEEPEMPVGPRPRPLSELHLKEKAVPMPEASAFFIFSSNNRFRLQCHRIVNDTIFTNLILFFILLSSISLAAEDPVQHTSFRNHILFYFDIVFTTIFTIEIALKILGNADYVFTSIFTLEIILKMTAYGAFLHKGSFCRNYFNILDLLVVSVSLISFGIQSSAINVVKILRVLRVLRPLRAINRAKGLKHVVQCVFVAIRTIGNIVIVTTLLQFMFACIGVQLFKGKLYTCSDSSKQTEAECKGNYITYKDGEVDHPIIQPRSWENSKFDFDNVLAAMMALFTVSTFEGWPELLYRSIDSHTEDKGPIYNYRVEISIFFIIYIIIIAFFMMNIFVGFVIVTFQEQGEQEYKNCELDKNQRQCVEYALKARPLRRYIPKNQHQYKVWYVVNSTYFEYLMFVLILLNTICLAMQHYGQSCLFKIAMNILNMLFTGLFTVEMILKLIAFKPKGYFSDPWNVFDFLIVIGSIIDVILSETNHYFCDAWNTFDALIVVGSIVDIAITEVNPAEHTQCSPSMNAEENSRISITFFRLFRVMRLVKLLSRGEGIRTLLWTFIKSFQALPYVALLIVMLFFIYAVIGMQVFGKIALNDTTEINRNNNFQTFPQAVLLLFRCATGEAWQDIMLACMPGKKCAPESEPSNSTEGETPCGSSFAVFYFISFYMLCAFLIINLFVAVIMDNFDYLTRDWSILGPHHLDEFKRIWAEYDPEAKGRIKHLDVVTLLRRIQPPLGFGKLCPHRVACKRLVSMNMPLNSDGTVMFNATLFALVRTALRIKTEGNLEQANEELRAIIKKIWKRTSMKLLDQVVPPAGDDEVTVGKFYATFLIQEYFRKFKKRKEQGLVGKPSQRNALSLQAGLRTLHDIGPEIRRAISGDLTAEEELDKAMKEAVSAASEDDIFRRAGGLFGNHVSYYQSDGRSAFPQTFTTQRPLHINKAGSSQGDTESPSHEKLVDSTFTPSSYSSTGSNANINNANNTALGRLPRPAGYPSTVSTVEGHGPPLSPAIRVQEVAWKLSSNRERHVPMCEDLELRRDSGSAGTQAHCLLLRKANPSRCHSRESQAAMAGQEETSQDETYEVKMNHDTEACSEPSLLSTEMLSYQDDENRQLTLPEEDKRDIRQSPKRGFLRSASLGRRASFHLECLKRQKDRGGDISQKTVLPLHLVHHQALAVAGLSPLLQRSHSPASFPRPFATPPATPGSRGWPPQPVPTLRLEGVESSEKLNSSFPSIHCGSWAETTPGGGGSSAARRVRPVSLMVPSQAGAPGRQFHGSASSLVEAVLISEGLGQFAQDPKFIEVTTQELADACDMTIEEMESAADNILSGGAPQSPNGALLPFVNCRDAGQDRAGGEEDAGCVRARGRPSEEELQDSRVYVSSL
T1 sequence (P54289 25-956, further chain): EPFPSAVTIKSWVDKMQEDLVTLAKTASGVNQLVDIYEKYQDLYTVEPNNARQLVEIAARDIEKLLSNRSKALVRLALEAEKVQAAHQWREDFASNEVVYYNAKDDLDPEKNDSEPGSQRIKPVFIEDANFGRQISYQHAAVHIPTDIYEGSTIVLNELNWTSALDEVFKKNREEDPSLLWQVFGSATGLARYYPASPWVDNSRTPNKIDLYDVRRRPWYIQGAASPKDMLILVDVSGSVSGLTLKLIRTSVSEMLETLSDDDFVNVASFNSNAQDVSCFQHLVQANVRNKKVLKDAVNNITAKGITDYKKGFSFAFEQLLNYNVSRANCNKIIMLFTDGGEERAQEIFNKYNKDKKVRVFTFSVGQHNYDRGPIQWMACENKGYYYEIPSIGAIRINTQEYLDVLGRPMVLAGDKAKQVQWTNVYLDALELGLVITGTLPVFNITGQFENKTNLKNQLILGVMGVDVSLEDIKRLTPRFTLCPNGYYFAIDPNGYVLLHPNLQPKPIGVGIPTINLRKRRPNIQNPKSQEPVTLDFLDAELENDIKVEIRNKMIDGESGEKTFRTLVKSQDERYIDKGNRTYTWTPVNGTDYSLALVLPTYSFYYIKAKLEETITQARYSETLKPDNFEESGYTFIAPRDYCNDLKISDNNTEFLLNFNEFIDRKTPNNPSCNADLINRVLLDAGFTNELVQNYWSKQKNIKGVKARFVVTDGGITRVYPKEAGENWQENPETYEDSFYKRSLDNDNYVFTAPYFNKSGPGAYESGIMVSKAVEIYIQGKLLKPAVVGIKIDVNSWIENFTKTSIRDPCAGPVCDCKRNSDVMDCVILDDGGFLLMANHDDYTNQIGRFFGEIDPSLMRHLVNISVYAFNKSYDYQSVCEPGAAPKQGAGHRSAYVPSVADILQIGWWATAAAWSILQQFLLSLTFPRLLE
T1 sequence (P54289 957-1103, further chain): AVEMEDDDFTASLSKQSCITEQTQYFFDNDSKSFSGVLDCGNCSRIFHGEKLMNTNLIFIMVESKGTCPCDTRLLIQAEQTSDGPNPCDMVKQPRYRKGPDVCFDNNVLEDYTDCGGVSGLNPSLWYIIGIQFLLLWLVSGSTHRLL
T1 sequence (Q08289 whole entry, further chain): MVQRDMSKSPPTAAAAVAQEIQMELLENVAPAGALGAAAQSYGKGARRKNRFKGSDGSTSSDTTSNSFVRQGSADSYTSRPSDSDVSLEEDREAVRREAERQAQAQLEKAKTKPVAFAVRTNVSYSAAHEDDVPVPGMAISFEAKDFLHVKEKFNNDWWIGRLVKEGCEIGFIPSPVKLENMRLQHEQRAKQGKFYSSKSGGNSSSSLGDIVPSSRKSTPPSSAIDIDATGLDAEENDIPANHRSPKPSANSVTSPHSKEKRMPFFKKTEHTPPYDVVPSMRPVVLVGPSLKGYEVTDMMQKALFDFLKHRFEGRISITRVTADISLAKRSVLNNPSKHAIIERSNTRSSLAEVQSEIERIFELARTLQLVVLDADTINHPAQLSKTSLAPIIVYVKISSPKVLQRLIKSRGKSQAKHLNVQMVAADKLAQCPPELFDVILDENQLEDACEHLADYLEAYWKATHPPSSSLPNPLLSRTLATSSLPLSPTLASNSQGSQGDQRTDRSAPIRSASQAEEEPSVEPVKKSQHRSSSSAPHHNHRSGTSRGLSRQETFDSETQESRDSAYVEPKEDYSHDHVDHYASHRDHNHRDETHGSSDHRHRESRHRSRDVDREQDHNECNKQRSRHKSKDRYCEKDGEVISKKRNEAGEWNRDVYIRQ
Method: iPSC cells (Axol Bioscience Ltd, FL, USA) were plated at a density of 25,000 cells/cm^2 on coverslips coated with 1x Axol Fibronectin Coating Solution in Axol Plating Medium (Axol Cardiomyocyte Maintenance Medium, 10 % fetal bovine serum and 10 μM Y-27,632 2HCl) according to manufacturer's instructions. The next day the medium was changed to Axol Cardiomyocyte Maintenance Medium. Cells were maintained at 5 % CO2, 37 °C in humidified conditions. Medium was replaced every other day.
An Axopatch −1D (Axon Instruments: Molecular Devices LLC, CA, USA) amplifier and […] were used for recording and data analysis. Patch electrode resistance was set at 4–6 MΩ and room temperature was 22 ± 1 °C. During the recording, cells were held at −50 mV, then, the voltage was gradually raised to +60 mV in 10 mV increments with 300 ms pulse. The bath solution included the following components: 137 mM TEA-Cl, 1 mM MgCl2, 2 mM CaCl2, 10 mM HEPES, 10 mM glucose (pH 7.4, adjusted with TEA-OH). For the pipette the solution contained: 111 mM CsCl, 20 mM TEA-Cl, 10 mM glucose, 10 mM HEPES, 14 mM EGTA, 5 mM MgATP (pH 7.2, adjusted with CsOH).
D represents the concentrations of a given drug.

Entamoeba histolytica = assay: Growth inhibition of Entamoeba histolytica in vitro (literature); type: cell-based; conditions: anti-coronavirus IC50 versus amebae
SARS-CoV-2 = assay: Antiviral activity against SARS-CoV-2 in BEC-hACE2 cells (RT-qPCR)
[3] = MTS assay, growth inhibition and toxicity in non-infected BEC-hACE2 cells; type: cell-based, human; conditions: human, sub-confluent non-infected BEC-hACE2 cells; sub-confluent BEC-hACE2, 24 h; read-out: MTS, CC50 (50 % effect)
Method: as §1
Vero E6 and BEC-hACE2 cells were grown to 70-80% density in their maintenance media and exposed to various concentrations of ipecac alkaloids (0.0125 – 200 µM) under standard culture conditions for 48-72 h and 24 h, respectively. Controls with varying amounts of DMSO and no DMSO were included also. Vero E6 cells were incubated with drugs in 2% FBS-EMEM, while BEC-HACE2 cells were grown and treated in complete PCS-300-03 medium with supplements. Similar treatments were also conducted using fully confluent non-growing BEC-hACE2 cells. At the end of the exposure period, MTS reagent (Promega G3580) was added at 1/5th of the medium volume and color was allowed to develop by incubation of the plates for an hour in a cell culture incubator. To stop reactions, SDS was added to a final concentration of 2% and optical density of samples was measured at 450 or 490 nm, depending on the model of spectrophotometer (PharmaciaBiotech, NJ, USA; UV spectrophotometer, model Ultrospec2000) or plate reader (Molecular Devices, CA, USA; model Filter Max F5 Multi-mode microplate reader) available at the time of experiment.

[4] = Betacoronavirus 1, OC43, Vero C1008, 72 h, Vero E6, 72 h, read-out: Antiviral IC50
[5] = Betacoronavirus 1, OC43, Vero C1008, Vero E6, drug added after viral absorption, 72 hpi, read-out: Antiviral IC50
[6] = Severe acute respiratory syndrome coronavirus 2, read-out: Anti-SARS-CoV2, IC50, subconfluent BEC-hACE2, drug after viral absorption, 24 hpi
[7] = Severe acute respiratory syndrome coronavirus 2, read-out: Anti-SARS-CoV-2 IC50, BEC-hACE2, 24 hpi

Q: Which IC50 ([1]; luciferase mRNA, 30 °C, 90 min) does the source give for `CCC1=C(C[C@H]2NCCc3cc(OC)c(OC)cc32)C[C@H]2c3cc(OC)c(OC)cc3CCN2C1` [DHE4, 4H-Benzo[a]quinolizine, 3-ethyl-1,6,7,11b-tetrahydro-9,10-dimethoxy-2-[[(1R)-1,2,3,4-tetrahydro-6,7-dimethoxy-1-isoquinolinyl]methyl]-, (11bS)-] here?
A: 1300 nM and 1330 nM

Q: What about the IC50 (HCoV-OC43; [4]) of the same compound?
A: 40 to 60 nM

Q: What about the IC50 (HCoV-OC43; [5]) of the same compound?
A: 63 ± 4 nM

Q: What about the IC50 (HCoV-OC43; Betacoronavirus 1, OC43, Vero C1008, read-out: Antiviral IC50, Vero E6, drug 1 h before viral absorption and 72 h after infection (1 hbi/72 hpi)) of the same compound?
A: 66 ± 6 nM

Q: And the “Selectivity index, (SI) CC50/IC50” value (HCoV-OC43; HCoV-OC43, Vero E6, 72 hpi)?
A: 52

Q: And the GI50 (BEC-hACE2 cells)?
A: 62 ± 17 nM

Q: And the GI50 (BEC-hACE2 cells; Homo sapiens, 24 h)?
A: 60 nM

Q: What about the Kd [2] of the same compound?
A: 60000 nM

Q: What about the “Peak current density, ICaL” value ([2]; human IPSC-derived cardiomyocytes, DHE4 30 uM (control 13.5)) of the same compound?
A: 8.9

Q: And the “Peak current density, ICaL, washout” value ([2]; human IPSC-derived cardiomyocytes, after washout of DHE4 30 uM (control 13.5))?
A: 9.8

Q: And the “Fold, antiviral concentrations lower than those required to kill amebae” value (Entamoeba histolytica)?
A: 125–250 fold

Q: What about the “SI from MTS CC50 (50 % effect)” value (SARS-CoV-2; SARS-CoV-2, BEC-hACE2) of the same compound?
A: exceed 1500

Q: And the IC50 (SARS-CoV-2; [6])?
A: 88 ± 23 nM

Q: What about the IC50 (SARS-CoV-2; [7]) of the same compound?
A: 50 to 100 nM

Q: For `CC[C@H]1CN2CCc3cc(OC)c(OC)cc3[C@@H]2C[C@@H]1C[C@H]1NCCc2cc(OC)c(OC)cc21` [Emetine, 2H-Benzoaquinolizine, 3-ethyl-1,3,4,6,7,11b-hexahydro-9,10-dimethoxy-2-(1R)-1,2,3,4-tetrahydro-6,7-dimethoxy-1-isoquinolinylmethyl-, dihydrochloride, (2S,3R,11bS)-, reference compound], which IC50 ([1]; luciferase mRNA, 30 °C, 90 min) is on record?
A: 1200 nM and 1210 nM

Q: And the IC50 (HCoV-OC43; [4])?
A: 40 to 60 nM

Q: And the IC50 (HCoV-OC43; Betacoronavirus 1, OC43, Vero C1008, Vero E6, drug 1 h before viral absorption and 72 h after infection (1 hbi/72 hpi), read-out: Antiviral IC50)?
A: 44 ± 2 nM

Q: What about the IC50 (HCoV-OC43; [5]) of the same compound?
A: 40 ± 2 nM

Q: And the CC50 at 24 h [3]?
A: 100000 nM

Q: What about the “SRB, TGI” value (BEC-hACE2 cells) of the same compound?
A: 250 to 500 nM

Q: And the “SRB, TGI” value (BEC-hACE2 cells; listed as EMT)?
A: ∼ 0.25–0.5 μM

Q: What about the GI50 (BEC-hACE2 cells; Homo sapiens, 24 h) of the same compound?
A: 110 nM

Q: And the GI50 (BEC-hACE2 cells; listed as EMT)?
A: 112 ± 22 nM

Q: And the “Estimated reduction in ICaL” value ([2]; human cardiomyocytes, assuming 25 µM)?
A: approximately one-third

Q: And the IC50 (SARS-CoV-2; [6])?
A: 52 ± 3 nM

Q: And the IC50 (SARS-CoV-2; [7])?
A: ~52 nM

Q: What about the inhibition at 0.5 µM (SARS-CoV-2; Severe acute respiratory syndrome coronavirus 2, read-out: Inhibition of viral propagation) of the same compound?
A: ≥ 90%

Q: What about the IC50 (SARS-CoV-2; read-out: Anti-SARS-CoV-2 IC50, BEC-hACE2, 24 hpi) of the same compound?
A: 50 to 100 nM

Q: Which “Inhibitory effects on translation in rabbit reticulocyte lysate” value ([1]; concentration range 0.1 - 100 μM) does the source give for `CC[C@H]1CN2CCc3cc(OC)c(OC)cc3[C@@H]2C[C@@H]1C[C@@H]1NCCc2cc(OC)c(OC)cc21.Cl.Cl` [Isoemetine, 2H-Benzoaquinolizine, 3-ethyl-1,3,4,6,7,11b-hexahydro-9,10-dimethoxy-2-(1S)-1,2,3,4-tetrahydro-6,7-dimethoxy-1-isoquinolinylmethyl-, dihydrochloride, (2S,3R,11bS)-] here?
A: no inhibitory effects

Q: What about the “IC50, protein synthesis inhibition in rabbit reticulocyte lysate” value ([1]; luciferase mRNA, 30 °C, 90 min) of the same compound?
A: Not active

Q: And the IC50 (HCoV-OC43; Vero E6, drug added after viral absorption, 72 hpi, read-out: Antiviral IC50)?
A: 1050 ± 213 nM

Q: And the “SRB, TGI” value (BEC-hACE2 cells)?
A: ~200000 nM

Q: And the GI50 (BEC-hACE2 cells)?
A: 19400 ± 3860 nM

Q: What about the “SRB, nature of the effect” value (BEC-hACE2 cells; BEC-hACE2, at ∼200 μM) of the same compound?
A: toxic

Q: What about the IC50 (SARS-CoV-2; read-out: Anti-SARS-CoV2, IC50, subconfluent BEC-hACE2, drug after viral absorption, 24 hpi) of the same compound?
A: 16500 nM

Q: What about the IC50 (SARS-CoV-2; read-out: Anti-SARS-CoV2, IC50, subconfluent BEC-hACE2, drug after viral absorption, 24 hpi, listed as ISOEMT) of the same compound?
A: 16500 ± 6240 nM
